# Test results reported in publication PMC4941342, “Proteasomal degradation of sphingosine kinase 1 and inhibition of dihydroceramide desaturase by the sphingosine kinase inhibitors, SKi or ABC294640, induces growth arrest in androgen-independent LNCaP-AI prostate cancer cells” (Oncotarget, 2016).
# Biological target: T1, dihydroceramide desaturase (Des1) (Homo sapiens, UniProt O15121)
# T1 construct: gene DEGS1
# T1 sequence (O15121 2-323): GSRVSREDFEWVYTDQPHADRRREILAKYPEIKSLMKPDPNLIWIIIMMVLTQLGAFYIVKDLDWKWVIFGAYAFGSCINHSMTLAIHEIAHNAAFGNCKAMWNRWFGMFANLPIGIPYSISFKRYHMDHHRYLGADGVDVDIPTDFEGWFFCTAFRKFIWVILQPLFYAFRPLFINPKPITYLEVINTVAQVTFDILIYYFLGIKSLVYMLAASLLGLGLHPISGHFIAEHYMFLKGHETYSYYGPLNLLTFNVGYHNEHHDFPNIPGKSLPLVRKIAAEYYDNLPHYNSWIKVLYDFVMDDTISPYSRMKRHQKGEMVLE
# Assay: Des1 activity in intact Jurkat cells labeled with DhCer-C6-NBD, HPLC with fluorescence detection
# Type: cell-based
row,Compound,IC50 [µM]
1,"O=C(NCc1ccncc1)C12CC3CC(C1)CC(c1ccc(Cl)cc1)(C3)C2 [ABC294640, 3-(4-chlorophenyl)-adamantane-1-carboxylic acid (pyridin-4-ylmethyl)amide]",10.2
2,"Oc1ccc(Nc2nc(-c3ccc(Cl)cc3)cs2)cc1 [SKi, 2-(p-hydroxyanilino)-4-(p-chlorophenyl)thiazole]",0.63 to 0.69
